Results reported in patent US8426406B2, “Glucocorticoid receptor agonist comprising 2,2,4-trimethyl-6-phenyl-1,2-dihydroquinoline derivatives having substituted oxy group” (Santen Pharmaceutical Co., Ltd., priority 2008, dated 2013).

Tested on: IL-6 production induced by lipopolysaccharide (LPS) in human corneal epithelial cells
Experiment: Evaluation test for GR agonist activity: inhibition of LPS-induced IL-6 production in human corneal epithelial cells (HCE-T)
Type: cell-based
Conditions: Corneal epithelial cell, 10 μL of 100 μM test compound solution per well, 4 hours incubation, efficacy relative to DEX
Method: In order to evaluate a GR agonist activity of the present compound, the inhibitory effects on the IL-6 production induced by lipopolysaccharide (LPS) in human corneal epithelial cells. IL-6 levels in the conditioned medium were measured using the HTRF human IL-6 Kit (boehringer-Ingelheim, Cat No. 62IL6PEB), and the procedure was carried out according to the protocol attached to the kit. Hereinafter, the specific method will be described.
LPS solution: After LPS was dissolved in phosphate buffer solution (hereinafter referred to as PBS(−)), the resulting solution was diluted with 10% FBS-DMEM/F12 medium, whereby a 1 μg/mL LPS solution was prepared.
After a test compound was dissolved in dimethylsulfoxide (hereinafter referred to as DMSO), the resulting solution was diluted with 10% FBS-DMEM/F12 medium, whereby a 100 μM test compound solution was prepared. A 100 μM DEX solution was prepared by the same method, and the inhibitory ratio of IL-6 production of DEX was evaluated to use for calculating efficacy (% DEX).
Used cell: SV40-immortalized human corneal epithelial cells (HCE-T) (RIKEN)
1) HCE-T cells were harvested, and seeded at 2.0×10^4 cells/0.1 mL/well in a 96-well plate.
2) After incubation overnight, the medium was removed and a 80 μL of new 10% FBS-DMEM/Ham's F12 medium was added into each well.
3) A 10 μL of test compounds solution was added into each well.
4) A 10 μL of LPS solution was added into each well.
5) As a negative control, a 10 μL of 10% FBS-DMEM/Ham's F12 medium was added into each well instead of a test compound solution and a LPS solution.
6) As a positive control, a 10 μL of 10% FBS-DMEM/Ham's F12 medium containing 1% DMSO was added into each well instead of a test compound solution.
7) After 4 hours incubation, supernatants were collected and IL-6 levels in the supernatants were quantitated using the HTRF human IL-6 Kit.
8) The inhibition ratio of IL-6 production (%) was calculated according to the following equation.
The inhibition ratio of IL-6 production (%) was calculated according to the following equation. The inhibition ratio of IL-6 production(%)=100×[1−(IL-6 level in each group−mean value of IL-6 level in negative control)/(mean value of IL-6 level in positive control−mean value of IL-6 level in negative control)](%)
Furthermore, the inhibition ratio of IL-6 production (efficacy (% DEX)) was also calculated according to the following equation. Efficacy(% DEX)=100×{(mean value of IL-6 inhibition in compound-treated group)/(mean value of IL-6 inhibition in DEX-treated group)}(%) (Result and Discussion)

Row | SMILES | Emax [%]
1 | COC(=O)c1cccc(C(=O)Oc2ccc(-c3ccc4c(c3COc3cc(F)ccc3C)C(C)=CC(C)(C)N4)c(OC)c2)c1 [Compound 1-54, 5-(5-Fluoro-2-methylphenoxymethyl)-6-[2-methoxy-4-(3-methoxycarbonylbenzoyloxy)phenyl]-2,2,4-trimethyl-1,2-dihydroquinoline] | 75
2 | COc1ccccc1NCc1c(-c2ccc(OC(=O)c3cccnc3C)cc2OC)ccc2c1C(C)=CC(C)(C)N2 [Compound 1-91, 6-[2-Methoxy-4-(2-methylpyridin-3-ylcarbonyloxy)phenyl]-5-(2-methoxyphenylaminomethyl)-2,2,4-trimethyl-1,2-dihydroquinoline] | 92
3 | COc1cc(OC(=O)Cc2ccccc2)ccc1-c1ccc2c(c1COc1cc(F)ccc1C)C(C)=CC(C)(C)N2 [Compound 1-15, 5-(5-Fluoro-2-methylphenoxymethyl)-6-(2-methoxy-4-phenylacetoxyphenyl)-2,2,4-trimethyl-1,2-dihydroquinoline] | 77
4 | COc1cc(OC(=O)c2ccoc2)ccc1-c1ccc2c(c1COC(=O)c1ccc(C)s1)C(C)=CC(C)(C)N2 [Compound 1-148, 6-[4-(Furan-3-ylcarbonyloxy)-2-methoxyphenyl]-5-(5-methylthiophen-2-ylcarbonyloxymethyl)-2,2,4-trimethyl-1,2-dihydroquinoline] | 86
5 | COc1cc(OC(=O)N(C)C)ccc1-c1ccc2c(c1COC(=O)c1ccc(C)s1)C(C)=CC(C)(C)N2 [Compound 6-37, 6-(4-Dimethylaminocarbonyloxy-2-methoxyphenyl)-5-(5-methylthiophen-2-ylcarbonyloxymethyl)-2,2,4-trimethyl-1,2-dihydroquinoline] | 85
6 | COc1ccccc1NCc1c(-c2ccc(OC(=O)c3ccc(F)cc3)cc2OC)ccc2c1C(C)=CC(C)(C)N2 [Compound 1-110, 6-[4-(4-Fluorobenzoyloxy)-2-methoxyphenyl]-5-(2-methoxyphenylaminomethyl)-2,2,4-trimethyl-1,2-dihydroquinoline] | 83
7 | CCCS(=O)(=O)Oc1ccc(-c2ccc3c(c2COc2cc([N+](=O)[O-])ccc2C)C(C)=CC(C)(C)N3)c(OC)c1 [Compound 4-12, 6-(2-Methoxy-4-propylsulfonyloxyphenyl)-5-(2-methyl-5-nitrophenoxymethyl)-2,2,4-trimethyl-1,2-dihydroquinoline] | 77
8 | COc1cc(OC(=O)c2ccccc2C)ccc1-c1ccc2c(c1COC(=O)c1ccc(C)s1)C(C)=CC(C)(C)N2 [Compound 1-143, 6-[2-Methoxy-4-(2-methylbenzoyloxy)phenyl]-5-(5-methylthiophen-2-ylcarbonyloxymethyl)-2,2,4-trimethyl-1,2-dihydroquinoline] | 96
9 | COc1cc(OC(=O)c2ccncc2F)ccc1-c1ccc2c(c1COc1cc(F)ccc1C)C(C)=CC(C)(C)N2 [Compound 1-69, 5-(5-Fluoro-2-methylphenoxymethyl)-6-[4-(3-fluoropyridin-4-ylcarbonyloxy)-2-methoxyphenyl]-2,2,4-trimethyl-1,2-dihydroquinoline] | 72
10 | COc1ccccc1NCc1c(-c2ccc(OC(=O)c3ccco3)cc2OC)ccc2c1C(C)=CC(C)(C)N2 [Compound 1-3, 6-[4-(Furan-2-ylcarbonyloxy)-2-methoxyphenyl]-5-(2-methoxyphenylaminomethyl)-2,2,4-trimethyl-1,2-dihydroquinoline] | 76
11 | CCS(=O)(=O)Oc1ccc(-c2ccc3c(c2COc2cc([N+](=O)[O-])ccc2C)C(C)=CC(C)(C)N3)c(OC)c1 [Compound 4-11, 6-(4-Ethylsulfonyloxy-2-methoxyphenyl)-5-(2-methyl-5-nitrophenoxymethyl)-2,2,4-trimethyl-1,2-dihydroquinoline] | 75
12 | COc1cc(OC(=O)c2ccncc2)ccc1-c1ccc2c(c1CNc1cc(F)ccc1C)C(C)=CC(C)(C)N2 [Compound 1-119, 5-(5-Fluoro-2-methylphenylaminomethyl)-6-[2-methoxy-4-(pyridin-4-ylcarbonyloxy)phenyl]-2,2,4-trimethyl-1,2-dihydroquinoline] | 75
13 | COc1cc(OC(=O)c2cccnc2)ccc1-c1ccc2c(c1COc1cc(F)ccc1C)C(C)=CC(C)(C)N2 [Compound 1-8, 5-(5-Fluoro-2-methylphenoxymethyl)-6-[2-methoxy-4-(pyridin-3-ylcarbonyloxy)phenyl]-2,2,4-trimethyl-1,2-dihydroquinoline] | 94
14 | COc1cc(OC(=O)Nc2ccc(Cl)cc2)ccc1-c1ccc2c(c1COC(=O)c1ccc(C)s1)C(C)=CC(C)(C)N2 [Compound 6-27, 6-[4-(4-Chlorophenylaminocarbonyloxy)-2-methoxyphenyl]-5-(5-methylthiophen-2-ylcarbonyloxymethyl)-2,2,4-trimethyl-1,2-dihydroquinoline] | 94
15 | COc1cc(OS(=O)(=O)C(C)C)ccc1-c1ccc2c(c1COC(=O)c1ccc(C)s1)C(C)=CC(C)(C)N2 [Compound 4-29, 6-(4-Isopropylsulfonyloxy-2-methoxyphenyl)-5-(5-methylthiophen-2-ylcarbonyloxymethyl)-2,2,4-trimethyl-1,2-dihydroquinoline] | 92
16 | COc1cc(OC(=O)c2ccc(C)nc2)ccc1-c1ccc2c(c1COc1cc(F)ccc1C)C(C)=CC(C)(C)N2 [Compound 1-55, 5-(5-Fluoro-2-methylphenoxymethyl)-6-[2-methoxy-4-(6-methylpyridin-3-ylcarbonyloxy)phenyl]-2,2,4-trimethyl-1,2-dihydroquinoline] | 76
17 | COc1cc(OC(=O)c2cscn2)ccc1-c1ccc2c(c1COC(=O)c1ccc(C)s1)C(C)=CC(C)(C)N2 [Compound 1-155, 6-[2-Methoxy-4-(thiazol-4-ylcarbonyloxy)phenyl]-5-(5-methylthiophen-2-ylcarbonyloxymethyl)-2,2,4-trimethyl-1,2-dihydroquinoline] | 83
18 | COc1cc(OC(=O)c2ccccc2F)ccc1-c1ccc2c(c1COc1cc(F)ccc1C)C(C)=CC(C)(C)N2 [Compound 1-45, 6-[4-(2-Fluorobenzoyloxy)-2-methoxyphenyl]-5-(5-fluoro-2-methylphenoxymethyl)-2,2,4-trimethyl-1,2-dihydroquinoline] | 77
19 | COc1cc(OC(=O)c2occc2C)ccc1-c1ccc2c(c1CNc1cc(F)ccc1C)C(C)=CC(C)(C)N2 [Compound 1-126, 5-(5-Fluoro-2-methylphenylaminomethyl)-6-[2-methoxy-4-(3-methylfuran-2-ylcarbonyloxy)phenyl]-2,2,4-trimethyl-1,2-dihydroquinoline] | 81
20 | COc1ccccc1NCc1c(-c2ccc(OC(=O)c3ccccc3)cc2OC)ccc2c1C(C)=CC(C)(C)N2 [Compound 1-92, 6-(4-Benzoyloxy-2-methoxyphenyl)-5-(2-methoxyphenylaminomethyl)-2,2,4-trimethyl-1,2-dihydroquinoline] | 79
21 | COc1cc(OC(=O)c2ccco2)ccc1-c1ccc2c(c1COC(=O)c1ccc(Br)s1)C(C)=CC(C)(C)N2 [Compound 1-162, 5-(5-Bromothiophen-2-ylcarbonyloxymethyl)-6-[4-(furan-2-ylcarbonyloxy)-2-methoxyphenyl]-2,2,4-trimethyl-1,2-dihydroquinoline] | 81
22 | COc1cc(OC(=O)c2ccccc2SC)ccc1-c1ccc2c(c1COc1cc(F)ccc1C)C(C)=CC(C)(C)N2 [Compound 1-38] | 75
23 | COc1cc(OS(=O)(=O)C2CC2)ccc1-c1ccc2c(c1COc1cc(F)ccc1C)C(C)=CC(C)(C)N2 [Compound 4-14, 6-(4-Cyclopropylsulfonyloxy-2-methoxyphenyl)-5-(5-fluoro-2-methylphenoxymethyl)-2,2,4-trimethyl-1,2-dihydroquinoline] | 80
24 | COc1ccccc1NCc1c(-c2ccc(OC(=O)c3occc3C)cc2OC)ccc2c1C(C)=CC(C)(C)N2 [Compound 1-114, 6-[2-Methoxy-4-(3-methylfuran-2-ylcarbonyloxy)phenyl]-5-(2-methoxyphenylaminomethyl)-2,2,4-trimethyl-1,2-dihydroquinoline] | 87
25 | COc1cc(OC(=O)C(C)C)ccc1-c1ccc2c(c1COC(=O)c1ccc(C)s1)C(C)=CC(C)(C)N2 [Compound 1-164, 6-(4-Isopropylcarbonyloxy-2-methoxyphenyl)-5-(5-methylthiophen-2-ylcarbonyloxymethyl)-2,2,4-trimethyl-1,2-dihydroquinoline] | 85
